Results as given in publication PMC8805605, “Discovery of Dimeric Arylsulfonamides as Potent ADAM8 Inhibitors” (ACS Medicinal Chemistry Letters, 2021).

Assays:
Type in all cases: biochemical
MMP-12 = biological target: T1, MMP-12 (Homo sapiens, UniProt P39900); assay: MMP-12 fluorometric inhibition assay; conditions: mean of three independent experiments in duplicate, read-out: In vitro inhibitory activity IC50 on MMP-12
T1 construct: purchased R&D Systems
Procedure: (§1) The newly synthesized bivalent derivatives 1–3 were then tested in vitro on human recombinant ADAM8 in comparison with JG26 by a fluorometric assay. The inhibitory activity against a panel of MMPs and ADAM10/17 was determined as well to assess their selectivity profile. […]
(§2) VI. Biological Activity on Isolated Enzymes
(§3) MMP and ADAM10 inhibition assays.
(§4) Recombinant human MMP-14 catalytic domain was a kind gift of Prof. Gillian Murphy (Department of […]
(§5) Oncology, University of Cambridge, UK). Pro-MMP-1, pro-MMP-2, and pro-MMP-9, were purchased […]
(§6) from Calbiochem (Merck-Millipore). Pro-MMP-12 and ADAM10 were purchased from R&D Systems.
(§7) Proenzymes were activated immediately prior to use with p-aminophenylmercuric acetate (APMA 2 […]
(§8) mM for 1 h at 37°C for MMP-2 and MMP-1, 1 mM for 1 h at 37°C for MMP-9). Pro-MMP-12 was […]
(§9) auto activated by incubating in the fluorometric assay buffer (FAB: Tris 50 mM, pH = 7.5, NaCl 150 […]
(§10) mM, CaCl2 10 mM, Brij 35 0.05% and DMSO 1%) for 30 h at 37°C. For assay measurements, each […]
(§11) inhibitor stock solution (DMSO, 10 mM) was further diluted in FAB at seven different concentrations.
(§12) Activated enzyme (final concentration 0.56 nM for MMP-2, 1.3 nM for MMP-9, 1.0 nM for MMP- […]
(§13) 14cd, 2.0 nM for MMP-1, 2.3 nM for MMP-12 and 20 nM for ADAM10) and inhibitor solutions were […]
(§14) incubated in the assay buffer for 3 h at 25 °C. ADAM10 was incubated for 1 h at 37°C in a different […]
(§15) was monitored every 10 sec. for 15 min. recording the increase in fluorescence (λ ex = 325 nm, λ em = […]
400 nm) using a Molecular Devices SpectraMax Gemini XPS plate reader. […]
(§16) (RFU). Percent of inhibition was calculated from control reactions without the inhibitor. IC50 was determined using the formula: v i/v o = 1/(1 + [I]/ IC50), where v i is the initial velocity of substrate cleavage in the presence of the inhibitor at concentration [I] and v o is the initial velocity in the absence of the inhibitor. Results were analyzed using SoftMax Pro software (version 5.4.3, Molecular Devices, Sunnyvale, CA) and Prism Software version 5.0 (GraphPad Software, Inc., La Jolla, CA, USA). […]

MMP-1 = biological target: T2, MMP-1 (Homo sapiens, UniProt P03956); assay: MMP-1 fluorometric inhibition assay; conditions: mean of three independent experiments in duplicate, read-out: In vitro inhibitory activity IC50 on MMP-1
T2 construct: purchased Calbiochem (Merck-Millipore)
T2 sequence (P03956 100-469): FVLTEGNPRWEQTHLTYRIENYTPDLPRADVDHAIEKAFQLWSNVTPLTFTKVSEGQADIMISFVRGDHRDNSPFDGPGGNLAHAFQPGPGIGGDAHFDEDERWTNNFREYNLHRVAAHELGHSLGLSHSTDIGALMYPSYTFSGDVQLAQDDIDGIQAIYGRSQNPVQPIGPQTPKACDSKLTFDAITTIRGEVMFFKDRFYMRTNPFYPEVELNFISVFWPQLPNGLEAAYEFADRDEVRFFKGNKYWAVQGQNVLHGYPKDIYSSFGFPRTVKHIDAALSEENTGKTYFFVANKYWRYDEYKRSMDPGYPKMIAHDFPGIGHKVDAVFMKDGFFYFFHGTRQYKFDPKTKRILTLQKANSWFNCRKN
Procedure: as §1, §2, §3, §4, §5, §6, §7, §8, §9, §10, §11, §12, §13, §14
(§17) buffer at pH 9 (Tris 25 mM, ZnCl2 25 µM, Brij-35 0.005 %). After the addition of 200 µM solution of […]
(§18) the fluorogenic substrate Mca-Lys-Pro-Leu-Gly-Leu-Dap(Dnp)-Ala-Arg-NH2 (Bachem) for all the […]
(§19) enzymes in DMSO (final concentration 2 µM for all enzymes, 10 µM for ADAM10), the hydrolysis […]
as §15
(§20) 400 nm) using a Molecular Devices SpectraMax Gemini XPS plate reader. The assays were performed […]
(§21) in triplicate in a total volume of 200 μL per well in 96-well microtitre plates (Corning, black, NBS).
(§22) Control wells lack inhibitor. The MMP inhibition activity was expressed in relative fluorescent units […]
(RFU). Percent of inhibition was calculated from control reactions without the inhibitor. IC50 was determined using the formula: v i/v o = 1/(1 + [I]/ IC50), where v i is the initial velocity of substrate cleavage in the presence of the inhibitor at concentration [I] and v o is the initial velocity in the absence of the inhibitor. Results were analyzed using SoftMax Pro software (version 5.4.3, Molecular Devices, Sunnyvale, CA) and Prism Software version 5.0 (GraphPad Software, Inc., La Jolla, CA, USA).
ADAM8 and ADAM17 inhibition assays […]

MMP-9 = biological target: T3, MMP-9 (Homo sapiens, UniProt P14780); assay: MMP-9 fluorometric inhibition assay; conditions: mean of three independent experiments in duplicate, read-out: In vitro inhibitory activity IC50 on MMP-9
T3 construct: purchased Calbiochem (Merck-Millipore)
Procedure: as §1, §2, §3, §4, §5, §6, §7, §8, §9, §10, §11, §12, §13, §14, §17, §18, §19, §15, §20, §21, §22, §16

[1] = biological target: T4, Recombinant human MMP-14 catalytic domain (Homo sapiens, UniProt P50281); assay: MMP-14 fluorometric inhibition assay; conditions: mean of three independent experiments in duplicate, read-out: In vitro inhibitory activity IC50 on MMP-14
T4 construct: Recombinant human MMP-14 catalytic domain was a kind gift of Prof; Gillian Murphy; kind gift of Prof; Gillian Murphy (Department of Oncology, University of Cambridge, UK)
Procedure: as §1, §2, §3, §4, §5, §6, §7, §8, §9, §10, §11, §12, §13, §14, §17, §18, §19, §15, §20, §21, §22, §16

T1 sequence (P39900 106-470): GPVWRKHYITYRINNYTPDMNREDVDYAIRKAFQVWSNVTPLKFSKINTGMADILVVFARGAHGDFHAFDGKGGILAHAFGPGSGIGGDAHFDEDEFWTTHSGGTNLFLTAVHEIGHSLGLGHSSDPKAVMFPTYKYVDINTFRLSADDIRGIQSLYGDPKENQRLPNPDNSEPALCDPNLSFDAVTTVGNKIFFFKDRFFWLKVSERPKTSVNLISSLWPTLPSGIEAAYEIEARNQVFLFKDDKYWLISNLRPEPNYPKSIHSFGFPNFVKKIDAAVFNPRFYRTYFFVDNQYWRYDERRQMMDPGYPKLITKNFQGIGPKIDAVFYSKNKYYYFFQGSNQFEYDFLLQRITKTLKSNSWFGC
T3 sequence (P14780 107-707 limits assumed, species assumed): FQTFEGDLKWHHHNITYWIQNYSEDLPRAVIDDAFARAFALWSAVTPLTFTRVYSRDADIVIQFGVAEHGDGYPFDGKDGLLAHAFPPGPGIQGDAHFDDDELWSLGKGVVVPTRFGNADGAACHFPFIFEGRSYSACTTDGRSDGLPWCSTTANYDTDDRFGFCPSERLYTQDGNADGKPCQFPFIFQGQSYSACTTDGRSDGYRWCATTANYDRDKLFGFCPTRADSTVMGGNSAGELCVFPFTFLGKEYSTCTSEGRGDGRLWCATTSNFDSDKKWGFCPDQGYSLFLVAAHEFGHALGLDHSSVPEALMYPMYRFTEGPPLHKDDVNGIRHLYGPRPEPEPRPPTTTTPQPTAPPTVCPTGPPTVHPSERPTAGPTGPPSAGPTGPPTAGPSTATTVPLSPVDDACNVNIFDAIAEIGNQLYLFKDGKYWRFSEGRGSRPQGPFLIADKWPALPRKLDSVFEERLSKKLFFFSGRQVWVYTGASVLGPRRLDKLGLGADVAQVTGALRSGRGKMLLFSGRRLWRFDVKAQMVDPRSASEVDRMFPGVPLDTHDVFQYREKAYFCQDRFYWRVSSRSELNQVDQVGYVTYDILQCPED

Structure (SMILES)	IC50 (MMP-12)	IC50 (MMP-1)	IC50 (MMP-9)	IC50 [1]
O=C(CCCNC(=O)c1cccc(C(=O)NCCCC(=O)NCCC[C@@H](NS(=O)(=O)c2ccc(OCc3cc(Br)cc(Br)c3)cc2)C(=O)NO)c1)NCCC[C@@H](NS(=O)(=O)c1ccc(OCc2cc(Br)cc(Br)c2)cc1)C(=O)NO [Compound 1]	0.242 µM	415 µM	3.32 µM	57 µM
O=C(NCCC[C@@H](NS(=O)(=O)c1ccc(OCc2cc(Br)cc(Br)c2)cc1)C(=O)NO)c1cccc(C(=O)NCCC[C@@H](NS(=O)(=O)c2ccc(OCc3cc(Br)cc(Br)c3)cc2)C(=O)NO)c1 [Compound 2]	0.041 µM	> 200 µM	8.8 µM	50 µM
NC(=O)NCCC[C@@H](NS(=O)(=O)c1ccc(OCc2cc(Br)cc(Br)c2)cc1)C(=O)NO [JG26, reference compound]	0.0094 µM	> 500 µM	1.63 µM	19.5 µM
O=C(NCCC[C@@H](NS(=O)(=O)c1ccc(OCc2cc(Br)cc(Br)c2)cc1)C(=O)NO)NCCC[C@@H](NS(=O)(=O)c1ccc(OCc2cc(Br)cc(Br)c2)cc1)C(=O)NO [Compound 3]	–	348 µM	13.5 µM	234 µM
